From patent US9718785B2, “1,3-Disubstituted cyclopentane derivatives” (MERCK PATENT GMBH, priority 2013, dated 2017)

Target: T1, human recombinant full-length fatty acid synthase (FASN) (Homo sapiens, UniProt P49327)
T1 construct: 40 nM human recombinant full-length fatty acid synthase (produced in-house in SF9 cells); made in house; host or cells: SF9 insect cells
Assay: Biochemical activity testing of human fatty acid synthase FASN (NADPH fluorescence intensity enzyme assay)
Conditions: for IC50: human recombinant FASN, enzyme assay
Description: Biochemical Activity Testing of Human Fatty Acid Synthase FASN
Fatty acid synthase FASN is a multifunctional enzyme with seven catalytic activities thereby synthesising long chain fatty acids especially palmitoyl-CoA in the presence of co-factor NADPH starting from the substrates acetyl-CoA and malonyl-CoA. The reductive synthesis is realized by the oxidation of NADPH to NADP. Since NADPH has a high fluorescence intensity quantum yield compared to NADP with excitation at 340 nm and emission at 460 nm, the reaction can be monitored via the decrease in fluorescence intensity. The biochemical FASN activity testing was performed as 384 well two-time-point kinetic fluorescence intensity assay format in Greiner low volume medium binding 384-well black microtiter plates in a total assay volume of 8 μl and was used for high throughput screen. In each well 3 μl 40 nM human recombinant full-length fatty acid synthase (produced in-house in SF9 cells) were dispensed in the following assay buffer: 50 mM potassium phosphate buffer pH 7.0, 0.005% (w/v) BSA, 2 mM Glutathione, 0.02% Tween-20. Then 2 μl of 200 μM NADPH in assay buffer were added, followed by the addition of the test compounds in 10 dilution concentrations starting with 30 μM (final concentration) to get a final DMSO content of 1% (v/v). The mixture was incubated for at least 15 min at room temperature. After the pre-incubation the enzymatic reaction was started by the addition of 2 μl substrate solution (80 μM acetyl-CoA, 240 μM malonyl-CoA). A first fluorescence intensity measurement (time point one) was performed with an Envision multimode reader (Perkin Elmer LAS Germany GmbH) at excitation wavelength 340 nm (lamp mode) and emission wavelength 460 nm. The reaction was incubated for 30 minutes at room temperature. After this the fluorescence intensity was measured again in the Envision using the same parameters as described above (second time point measurement). The data were analysed by subtracting the first time point measurement value from the second time point measurement value (after the enzymatic reaction). The differences of the emission signals were determined. These reflect directly the conversion rate of NADPH. The full value used was the inhibitor-free reaction. A pharmacological zero value was used like GSK837149A (Sigma-Aldrich) in a final concentration of 5-10 μM. The inhibitory values (IC50) were determined using either the program Symyx Assay Explorer® or Condosseo® from GeneData.

T1 sequence (P49327 whole entry): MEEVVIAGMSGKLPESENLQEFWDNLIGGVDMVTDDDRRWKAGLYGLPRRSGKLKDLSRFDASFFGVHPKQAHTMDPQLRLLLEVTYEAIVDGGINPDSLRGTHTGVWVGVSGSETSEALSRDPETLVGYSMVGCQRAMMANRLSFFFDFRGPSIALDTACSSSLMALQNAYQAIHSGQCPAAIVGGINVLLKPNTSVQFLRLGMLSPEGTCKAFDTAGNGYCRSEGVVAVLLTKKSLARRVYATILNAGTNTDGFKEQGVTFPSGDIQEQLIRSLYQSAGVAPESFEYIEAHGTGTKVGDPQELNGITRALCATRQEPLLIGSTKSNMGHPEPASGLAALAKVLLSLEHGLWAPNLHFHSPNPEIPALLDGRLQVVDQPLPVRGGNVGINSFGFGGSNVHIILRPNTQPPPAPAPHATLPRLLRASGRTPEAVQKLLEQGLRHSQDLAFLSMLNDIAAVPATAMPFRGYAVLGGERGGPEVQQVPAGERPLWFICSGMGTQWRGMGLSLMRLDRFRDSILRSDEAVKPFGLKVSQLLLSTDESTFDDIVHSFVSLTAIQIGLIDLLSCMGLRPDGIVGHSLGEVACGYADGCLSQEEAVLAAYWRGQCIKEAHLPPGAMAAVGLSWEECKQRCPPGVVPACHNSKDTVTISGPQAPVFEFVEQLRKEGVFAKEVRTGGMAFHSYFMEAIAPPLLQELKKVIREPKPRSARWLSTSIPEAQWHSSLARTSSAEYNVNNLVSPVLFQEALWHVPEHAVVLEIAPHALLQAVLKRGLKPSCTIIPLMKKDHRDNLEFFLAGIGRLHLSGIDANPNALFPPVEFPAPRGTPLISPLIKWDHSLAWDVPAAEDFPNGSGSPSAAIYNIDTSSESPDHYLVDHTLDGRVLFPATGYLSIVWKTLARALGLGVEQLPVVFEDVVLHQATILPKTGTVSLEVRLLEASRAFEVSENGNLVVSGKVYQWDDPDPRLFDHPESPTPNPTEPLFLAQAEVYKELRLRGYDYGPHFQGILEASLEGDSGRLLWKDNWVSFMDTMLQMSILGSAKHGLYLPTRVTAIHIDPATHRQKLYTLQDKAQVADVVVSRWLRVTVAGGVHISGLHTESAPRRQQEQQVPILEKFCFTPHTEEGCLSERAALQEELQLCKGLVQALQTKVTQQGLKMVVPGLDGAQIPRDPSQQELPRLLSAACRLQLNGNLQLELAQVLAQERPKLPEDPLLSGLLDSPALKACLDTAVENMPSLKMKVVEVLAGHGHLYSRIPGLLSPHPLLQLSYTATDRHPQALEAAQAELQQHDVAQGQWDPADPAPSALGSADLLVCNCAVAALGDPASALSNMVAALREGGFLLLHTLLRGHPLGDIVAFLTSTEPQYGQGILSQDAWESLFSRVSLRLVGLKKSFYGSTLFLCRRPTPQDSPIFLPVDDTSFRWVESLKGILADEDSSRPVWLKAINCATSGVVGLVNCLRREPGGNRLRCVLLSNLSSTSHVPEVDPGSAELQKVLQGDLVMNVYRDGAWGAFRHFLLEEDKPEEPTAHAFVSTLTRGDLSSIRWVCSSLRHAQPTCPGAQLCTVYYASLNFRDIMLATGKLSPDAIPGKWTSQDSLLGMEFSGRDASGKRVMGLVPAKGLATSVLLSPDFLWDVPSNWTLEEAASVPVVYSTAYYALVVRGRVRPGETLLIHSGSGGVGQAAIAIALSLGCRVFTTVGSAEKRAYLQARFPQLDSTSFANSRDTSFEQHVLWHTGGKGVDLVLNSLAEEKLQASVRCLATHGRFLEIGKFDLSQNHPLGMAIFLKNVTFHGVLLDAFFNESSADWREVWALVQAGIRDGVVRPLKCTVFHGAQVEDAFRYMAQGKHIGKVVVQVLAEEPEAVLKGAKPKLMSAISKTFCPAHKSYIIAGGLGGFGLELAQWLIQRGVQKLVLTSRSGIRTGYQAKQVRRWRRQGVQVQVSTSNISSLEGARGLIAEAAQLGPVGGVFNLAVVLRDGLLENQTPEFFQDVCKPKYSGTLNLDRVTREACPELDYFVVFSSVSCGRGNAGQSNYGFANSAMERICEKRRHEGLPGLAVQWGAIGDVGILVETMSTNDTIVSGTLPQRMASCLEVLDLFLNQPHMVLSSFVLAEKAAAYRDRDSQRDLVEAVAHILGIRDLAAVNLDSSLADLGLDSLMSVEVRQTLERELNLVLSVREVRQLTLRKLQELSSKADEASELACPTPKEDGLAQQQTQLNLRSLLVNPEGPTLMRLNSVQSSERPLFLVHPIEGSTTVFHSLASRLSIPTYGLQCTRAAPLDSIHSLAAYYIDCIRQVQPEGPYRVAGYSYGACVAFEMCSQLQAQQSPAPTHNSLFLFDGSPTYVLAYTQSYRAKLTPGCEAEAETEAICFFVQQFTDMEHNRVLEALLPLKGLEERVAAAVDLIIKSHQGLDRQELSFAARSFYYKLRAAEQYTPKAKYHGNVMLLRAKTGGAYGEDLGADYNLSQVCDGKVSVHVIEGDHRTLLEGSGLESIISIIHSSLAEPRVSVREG

Row | SMILES | IC50 | Inhibition of FASN (enzyme assay) (at 3 μM)
1 | CCC(=O)N[C@H]1CC[C@@H](n2nncc2-c2ccc(-c3cccc4[nH]ncc34)nc2)C1 [Compound A123, N-((1S,3R)-3-{5-[6-(1H-Indazol-4-yl)-pyridin-3-yl]-[1,2,3]triazol-1-yl}-cyclopentyl)-propionamide] | 300 to 3000 nM | 
2 | CCC(=O)N[C@H]1CC[C@@H](n2nncc2-c2ccc(-c3nc4ccc(Cl)cc4o3)cn2)C1 [Compound A114, N-((1S,3R)-3-{5-[5-(6-Chloro-benzoxazol-2-yl)-pyridin-2-yl]-[1,2,3]triazol-1-yl}-cyclopentyl)-propionamide] | 300 to 3000 nM | 
3 | CCC(=O)N[C@H]1CC[C@@H](n2cncc2-c2ccc(-c3nc4ccccc4s3)cc2)C1 [Compound A20, N-{(1S,3R)-3-[5-(4-benzothiazol-2-yl-phenyl)-imidazol-1-yl]-cyclopentyl}-propionamide] | < 300 nM | 
4 | CC1(NC(=O)[C@H]2CC[C@@H](n3cncc3-c3ccc(-c4ccc5[nH]nnc5c4)cc3)C2)CC1 [Compound A9, (1S,3R)-3-{5-[4-(1H-benzotriazol-5-yl)-phenyl]-imidazol-1-yl}-cyclopentanecarboxylic acid (1-methyl-cyclopropyl)-amide] | < 300 nM | 
5 | CCNC(=O)[C@H]1CC[C@@H](n2nncc2-c2ccc(-c3ccc(OCC4CC4)cc3)cc2)C1 [Compound A103, (1S,3R)-3-[5-(4′-Cyclopropylmethoxy-biphenyl-4-yl)-[1,2,3]triazol-1-yl]-cyclopentanecarboxylic acid ethylamide] | < 300 nM | 
6 | CC1(NC(=O)[C@H]2CC[C@@H](n3cncc3-c3ccc(-c4cnc5[nH]ccc5c4)cc3)C2)CC1 [Compound A5, (1S,3R)-3-{5-[4-(1H-pyrrolo[2,3-b]pyridin-5-yl)-phenyl]-imidazol-1-yl}-cyclopentanecarboxylic acid (1-methyl-cyclopropyl)-amide] |  | Inhibition: −44%
7 | CCC(=O)N[C@H]1CC[C@@H](n2nncc2-c2ccc(-c3cnc4ccccc4c3)cc2)C1 [Compound A70, N-{(1S,3R)-3-[5-(4-Quinolin-3-yl-phenyl)-[1,2,3]triazol-1-yl]-cyclopentyl}-propionamide] | < 300 nM | 
8 | CCC(=O)N[C@H]1CC[C@@H](n2nncc2-c2ccc(-c3nc4ccccc4o3)cn2)C1 [Compound A115, N-{(1S,3R)-3-[5-(5-Benzoxazol-2-yl-pyridin-2-yl)-[1,2,3]triazol-1-yl]-cyclopentyl}-propionamide] | < 300 nM | 
9 | CCC(=O)N[C@H]1CC[C@@H](n2cnnc2-c2ccc(-c3nc4ccccc4o3)cc2)C1 [Compound A37, N-{(1S,3R)-3-[3-(4-benzoxazol-2-yl-phenyl)-[1,2,4]triazol-4-yl]-cyclopentyl}-propionamide] | < 300 nM | 
10 | CCC(=O)N[C@H]1CC[C@@H](n2nncc2-c2ccc(-c3ccc4[nH]cnc4c3)cc2)C1 [Compound A73, N-((1S,3R)-3-{5-[4-(1H-Benzimidazol-5-yl)-phenyl]-[1,2,3]triazol-1-yl}-cyclopentyl)-propionamide] | < 300 nM | 
11 | CCC(=O)N[C@H]1CC[C@@H](n2cnnc2-c2ccc(-c3ccc(-n4cccn4)cc3)cc2)C1 [Compound A96, N-{(1S,3R)-3-[3-(4′-Pyrazol-1-yl-biphenyl-4-yl)[1,2,4]triazol-4-yl]-cyclopentyl}-propionamide] | < 300 nM | 
12 | CCC(=O)N[C@H]1CC[C@@H](n2nncc2-c2ccc(-c3ccc(C#N)c(F)c3)cc2)C1 [Compound A80, N-{(1S,3R)-3-[5-(4′-Cyano-3′-fluoro-biphenyl-4-yl)-[1,2,3]triazol-1-yl]-cyclopentyl}-propionamide] | < 300 nM | 

Results, then the compound that gave them:

Row | IC50 | Inhibition of FASN (enzyme assay) (at 3 μM) | SMILES
13 | < 300 nM |  | CCC(=O)N[C@H]1CC[C@@H](n2nncc2-c2ccc(-c3ccc(Cl)cc3F)cc2)C1 [Compound A81, N-{(1S,3R)-3-[5-(4′-Chloro-2′-fluoro-biphenyl-4-yl)-[1,2,3]triazol-1-yl]-cyclopentyl}-propionamide]
14 | < 300 nM |  | CCC(=O)N[C@H]1CC[C@@H](n2nncc2-c2ccc(-c3ccc(C#N)cc3F)cc2)C1 [Compound A62, N-{(1S,3R)-3-[5-(4′-Cyano-2′-fluoro-biphenyl-4-yl)-[1,2,3]triazol-1-yl]-cyclopentyl}-propionamide]
15 | < 300 nM |  | CCC(=O)N[C@H]1CC[C@@H](n2nncc2-c2ccc(-c3ccc4[nH]ccc4c3F)cc2)C1 [Compound A110, N-((1S,3R)-3-{5-[4-(4-Fluoro-1H-indol-5-yl)-phenyl]-[1,2,3]triazol-1-yl}-cyclopentyl)-propionamide]
16 | < 300 nM |  | CCC(=O)N[C@H]1CC[C@@H](n2nncc2-c2ccc(-c3ccc(Cl)c(F)c3)cc2)C1 [Compound A75, N-{(1S,3R)-3-[5-(4′-Chloro-3′-fluoro-biphenyl-4-yl)-[1,2,3]triazol-1-yl]-cyclopentyl}-propionamide]
17 | < 300 nM |  | CCC(=O)N[C@H]1CC[C@@H](n2nncc2-c2ccc(-c3ccc(OC)cc3OC)cc2)C1 [Compound A86, N-{(1S,3R)-3-[5-(2′,4′-Dimethoxy-biphenyl-4-yl)-[1,2,3]triazol-1-yl]-cyclopentyl}-propionamide]
18 | < 300 nM |  | CCC(=O)N[C@H]1CC[C@@H](n2nncc2-c2ccc(-c3ccc4c(c3)N(C)C(=O)C4)cc2)C1 [Compound A77, N-((1S,3R)-3-{5-[4-(1-Methyl-2-oxo-2,3-dihydro-1H-indol-6-yl)-phenyl]-[1,2,3]triazol-1-yl}-cyclopentyl)-propionamide]
19 | < 300 nM |  | CCC(=O)N[C@H]1CC[C@@H](n2nncc2-c2ccc(-c3ccc4[nH]ccc4c3F)cn2)C1 [Compound A116, N-((1S,3R)-3-{5-[5-(4-Fluoro-1H-indol-5-yl)-pyridin-2-yl]-[1,2,3]triazol-1-yl}-cyclopentyl)-propionamide]
20 | < 300 nM |  | CCNC(=O)[C@H]1CC[C@@H](n2cnnc2-c2ccc(-c3ccc4ncsc4c3)cc2)C1 [Compound A65, (1S,3R)-3-[3-(4-Benzothiazol-6-yl-phenyl)-[1,2,4]triazol-4-yl]-cyclopentanecarboxylic acid ethylamide]
21 | < 300 nM |  | CCNC(=O)[C@H]1CC[C@@H](n2nncc2-c2ccc(-c3ccc(C#N)cc3)cc2)C1 [Compound A15, (1S,3R)-3-[5-(4′-cyano-biphenyl-4-yl)-[1,2,3]triazol-1-yl]-cyclopentanecarboxylic acid ethylamide]
22 | < 300 nM |  | CCC(=O)N[C@H]1CC[C@@H](n2nncc2-c2ccc(-c3cc4cc[nH]c4cc3F)cc2)C1 [Compound A112, N-((1S,3R)-3-{5-[4-(6-Fluoro-1H-indol-5-yl)-phenyl]-[1,2,3]triazol-1-yl}-cyclopentyl)-propionamide]
23 | < 300 nM |  | CCNC(=O)[C@H]1CC[C@@H](n2nncc2-c2ccc(-c3ccc(Cl)c(F)c3)cc2)C1 [Compound A104, (1S,3R)-3-[5-(4′-Chloro-3′-fluoro-biphenyl-4-yl)-[1,2,3]triazol-1-yl]-cyclopentanecarboxylic acid ethylamide]
24 | < 300 nM |  | CCNC(=O)[C@H]1CC[C@@H](n2cnnc2-c2ccc(-c3ccc(Cl)cc3)cc2)C1 [Compound A31, (1S,3R)-3-[3-(4′-chloro-biphenyl-4-yl)[1,2,4]triazol-4-yl]-cyclopentanecarboxylic acid ethylamide]
25 | < 300 nM |  | CCC(=O)N[C@H]1CC[C@@H](n2nncc2-c2ccc(-c3ccc(-n4cccn4)cc3)cc2)C1 [Compound A76, N-{(1S,3R)-3-[5-(4′-Pyrazol-1-yl-biphenyl-4-yl)-[1,2,3]triazol-1-yl]-cyclopentyl}-propionamide]
26 | < 300 nM |  | CCC(=O)N[C@H]1CC[C@@H](n2nncc2-c2ccc(-c3ccc4nccn4c3)cc2)C1 [Compound A111, N-{(1S,3R)-3-[5-(4-Imidazo[1,2-a]pyridin-6-yl-phenyl)-[1,2,3]triazol-1-yl]-cyclopentyl}-propionamide]
27 | < 300 nM |  | CCC(=O)N[C@H]1CC[C@@H](n2cnnc2-c2ccc(-c3ccc(Cl)cc3)cc2)C1 [Compound A39, N-{(1S,3R)-3-[3-(4′-chloro-biphenyl-4-yl)-[1,2,4]triazol-4-yl]-cyclopentyl}-propionamide]
28 | < 300 nM |  | CCC(=O)N[C@H]1CC[C@@H](n2cnnc2-c2ccc(-c3ccc4cc[nH]c4c3)cc2)C1 [Compound A44, N-((1S,3R)-3-{3-[4-(1H-indol-6-yl)-phenyl]-[1,2,4]triazol-4-yl}-cyclopentyl)-propionamide]
29 | < 300 nM |  | CCC(=O)N[C@H]1CC[C@@H](n2nncc2-c2ccc(-c3nc4ccccc4s3)cc2)C1 [Compound A28, N-{(1S,3R)-3-[5-(4-benzothiazol-2-yl-phenyl)-[1,2,3]triazol-1-yl]-cyclopentyl}-propionamide]
